# Results reported in patent US20260274814A1, “THIENYL COMPOUNDS FOR THE TREATMENT OF A CENTRAL NERVOUS SYSTEM DISEASE OR DISORDER” (Coreterra Therapeutics, Inc., priority 2023, published 2026).
# Structures can show the parent of a compound that is named as a salt.
# Test system: mice
# Experiment: Neuropharmacological Assay (SmartCube): automated behavioral signature of compound-treated mice compared with a database of reference drug classes
# Type: in vivo
# Settings: for AD / AG / AN / AP / AX / CE / HL / MS / PS / SH / UK: SmartCube probability class, 3.0 mg/kg dose, i.p. 15 min before the behavioral test; for MED / minimal effective dose: minimal effective dose: dose having 45% or more total activity in SmartCube, i.p., if only one dose was tested, that dose is shown; for minimal effective dose: Mus musculus, ip, read-out: MED
# Outline: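 Compounds in N-methyl-2-pyrrolidone/polyethylene glycol/propylene glycol were given i.p. 15 min before testing, at 3 doses; values shown are for 3.0 mg/kg. Video-captured behaviour was matched by algorithm against reference drug classes, giving a probability per class. MED: lowest dose reaching ≥45% total activity.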
structure (smiles),measurement,setting,value
"CNC1COc2c(C(F)(F)F)csc2C1 (single isomer, unassigned) [Compound 310, N-methyl-3-(trifluoromethyl)-6,7-dihydro-5H-thieno[3,2-b]pyran-6-amine hydrochloride]",AD,,ND (^ <4%)
same,AG,,ND (^ <4%)
same,AN,,ND (^ <4%)
same,AP,,ND (^ <4%)
same,AX,,ND (^ <4%)
same,CE,,ND (^ <4%)
same,HL,,ND (^ <4%)
same,MS,,ND (^ <4%)
same,PS,,ND (^ <4%)
same,SH,,ND (^ <4%)
same,UK,"hydrochloride, 3 mg/kg",++ (≥24%)
same,MED,hydrochloride,>3 mpk
"N#Cc1scc2c1CC(N)CC2 (single isomer, unassigned) [Compound 312, 6-amino-4,5,6,7-tetrahydro-2-benzothiophene-1-carbonitrile hydrochloride]",minimal effective dose,,3 mg/kg
same,AD,,ND (^ <4%)
same,AG,,ND (^ <4%)
same,AN,,ND (^ <4%)
same,AP,,ND (^ <4%)
same,AX,,ND (^ <4%)
same,CE,,ND (^ <4%)
same,HL,,ND (^ <4%)
same,MS,,ND (^ <4%)
same,PS,,ND (^ <4%)
same,SH,,ND (^ <4%)
same,UK,"hydrochloride, 3 mg/kg",+++ (≥49%)
"N#Cc1scc2c1CC(N)CC2 (single isomer, unassigned) [Compound 313, 6-amino-4,5,6,7-tetrahydro-2-benzothiophene-1-carbonitrile hydrochloride]",AD,,ND (^ <4%)
same,AG,,ND (^ <4%)
same,AN,,ND (^ <4%)
same,AP,,ND (^ <4%)
same,AX,,ND (^ <4%)
same,CE,,ND (^ <4%)
same,HL,,ND (^ <4%)
same,MS,,ND (^ <4%)
same,PS,,ND (^ <4%)
same,SH,,ND (^ <4%)
same,UK,"hydrochloride, 3 mg/kg",+ (≥4%)
same,MED,hydrochloride,>3 mpk
"CNC1Cc2scc(C(F)(F)F)c2C1 (single isomer, unassigned) [Compound 314, N-methyl-3-(trifluoromethyl)-5,6-dihydro-4H-cyclopenta[b]thiophen-5-amine hydrochloride]",minimal effective dose,,> 3 mg/kg
same,AD,,ND (^ <4%)
same,AG,,ND (^ <4%)
same,AN,,ND (^ <4%)
same,CE,,ND (^ <4%)
same,HL,,ND (^ <4%)
same,MS,,ND (^ <4%)
same,PS,,ND (^ <4%)
same,SH,,ND (^ <4%)
same,AP,"hydrochloride, 3 mg/kg",ND (^ <4%)
same,AX,"hydrochloride, 3 mg/kg",ND (^ <4%)
same,UK,"hydrochloride, 3 mg/kg",+ (≥4%)
"CNC1Cc2scc(C(F)(F)F)c2C1 (single isomer, unassigned) [Compound 315, N-methyl-3-(trifluoromethyl)-5,6-dihydro-4H-cyclopenta[b]thiophen-5-amine hydrochloride]",AD,,ND (^ <4%)
same,AG,,ND (^ <4%)
same,AN,,ND (^ <4%)
same,CE,,ND (^ <4%)
same,HL,,ND (^ <4%)
same,MS,,ND (^ <4%)
same,PS,,ND (^ <4%)
same,SH,,ND (^ <4%)
same,AP,"hydrochloride, 3 mg/kg",+ (≥4%)
same,AX,"hydrochloride, 3 mg/kg",++++ (≥74%)
same,UK,"hydrochloride, 3 mg/kg",ND (^ <4%)
same,MED,hydrochloride,3 mpk
"CNC1Cc2scc(C)c2C1 (single isomer, unassigned) [Compound 316, N, 3-dimethyl-5,6-dihydro-4H-cyclopenta[b]thiophen-5-amine hydrochloride]",minimal effective dose,,3 mg/kg
same,AD,,ND (^ <4%)
same,AG,,ND (^ <4%)
same,AN,,ND (^ <4%)
same,HL,,ND (^ <4%)
same,MS,,ND (^ <4%)
same,PS,,ND (^ <4%)
same,SH,,ND (^ <4%)
same,UK,,ND (^ <4%)
same,AP,"hydrochloride, 3 mg/kg",++++ (≥74%)
same,AX,"hydrochloride, 3 mg/kg",ND (^ <4%)
same,CE,"hydrochloride, 3 mg/kg",ND (^ <4%)
"CNC1Cc2scc(C)c2C1 (single isomer, unassigned) [Compound 317, N, 3-dimethyl-5,6-dihydro-4H-cyclopenta[b]thiophen-5-amine hydrochloride]",AD,,ND (^ <4%)
same,AG,,ND (^ <4%)
same,AN,,ND (^ <4%)
same,HL,,ND (^ <4%)
same,MS,,ND (^ <4%)
same,PS,,ND (^ <4%)
same,SH,,ND (^ <4%)
same,UK,,ND (^ <4%)
same,AP,"hydrochloride, 3 mg/kg",+ (≥4%)
same,AX,"hydrochloride, 3 mg/kg",+++ (≥49%)
same,CE,"hydrochloride, 3 mg/kg",+ (≥4%)
same,MED,,3 mpk
"CNC1Cc2cc(C)sc2C1 (single isomer, unassigned) [Compound 318, N, 2-dimethyl-5,6-dihydro-4H-cyclopenta[b]thiophen-5-amine hydrochloride]",minimal effective dose,,3 mg/kg
same,AD,,ND (^ <4%)
same,AG,,ND (^ <4%)
same,AN,,ND (^ <4%)
same,HL,,ND (^ <4%)
same,MS,,ND (^ <4%)
same,PS,,ND (^ <4%)
same,SH,,ND (^ <4%)
same,AP,"hydrochloride, 3 mg/kg",+ (≥4%)
same,AX,"hydrochloride, 3 mg/kg",+ (≥4%)
same,CE,"hydrochloride, 3 mg/kg",ND (^ <4%)
same,UK,"hydrochloride, 3 mg/kg",+++ (≥49%)
"CNC1Cc2cc(C)sc2C1 (single isomer, unassigned) [Compound 319, N, 2-dimethyl-5,6-dihydro-4H-cyclopenta[b]thiophen-5-amine hydrochloride]",AD,,ND (^ <4%)
same,AG,,ND (^ <4%)
same,AN,,ND (^ <4%)
same,HL,,ND (^ <4%)
same,MS,,ND (^ <4%)
same,PS,,ND (^ <4%)
same,SH,,ND (^ <4%)
same,AP,"hydrochloride, 3 mg/kg",ND (^ <4%)
same,AX,"hydrochloride, 3 mg/kg",++++ (≥74%)
same,CE,"hydrochloride, 3 mg/kg",+ (≥4%)
same,UK,"hydrochloride, 3 mg/kg",ND (^ <4%)
same,MED,,3 mpk
"CNC1Cc2scc(C3CC3)c2C1 (single isomer, unassigned) [Compound 320, 3-cyclopropyl-N-methyl-5,6-dihydro-4H-cyclopenta[b]thiophen-5-amine hydrochloride]",minimal effective dose,,> 3 mg/kg
same,AD,,ND (^ <4%)
same,AG,,ND (^ <4%)
same,AN,,ND (^ <4%)
same,CE,,ND (^ <4%)
same,HL,,ND (^ <4%)
same,MS,,ND (^ <4%)
same,PS,,ND (^ <4%)
same,SH,,ND (^ <4%)
same,AP,"hydrochloride, 3 mg/kg",ND (^ <4%)
same,AX,"hydrochloride, 3 mg/kg",ND (^ <4%)
same,UK,"hydrochloride, 3 mg/kg",++ (≥24%)
"CNC1Cc2scc(C3CC3)c2C1 (single isomer, unassigned) [Compound 321, 3-cyclopropyl-N-methyl-5,6-dihydro-4H-cyclopenta[b]thiophen-5-amine hydrochloride]",AD,,ND (^ <4%)
same,AG,,ND (^ <4%)
same,AN,,ND (^ <4%)
same,CE,,ND (^ <4%)
same,HL,,ND (^ <4%)
same,MS,,ND (^ <4%)
same,PS,,ND (^ <4%)
same,SH,,ND (^ <4%)
same,AP,"hydrochloride, 3 mg/kg",+ (≥4%)
same,AX,"hydrochloride, 3 mg/kg",++++ (≥74%)
same,UK,"hydrochloride, 3 mg/kg",ND (^ <4%)
same,MED,hydrochloride,3 mpk
"CNC1COc2c(C3CC3)csc2C1 (single isomer, unassigned) [Compound 324, 3-cyclopropyl-N-methyl-6,7-dihydro-5H-thieno[3,2-b]pyran-6-amine hydrochloride]",minimal effective dose,,3 mg/kg
same,AG,,ND (^ <4%)
same,AN,,ND (^ <4%)
same,AP,,ND (^ <4%)
same,AX,,ND (^ <4%)
same,CE,,ND (^ <4%)
same,HL,,ND (^ <4%)
same,MS,,ND (^ <4%)
same,PS,,ND (^ <4%)
same,SH,,ND (^ <4%)
same,AD,"hydrochloride, 3 mg/kg",+ (≥4%)
same,UK,"hydrochloride, 3 mg/kg",ND (^ <4%)
"CNC1COc2c(C3CC3)csc2C1 (single isomer, unassigned) [Compound 325, 3-cyclopropyl-N-methyl-6,7-dihydro-5H-thieno[3,2-b]pyran-6-amine hydrochloride]",AG,,ND (^ <4%)
same,AN,,ND (^ <4%)
same,AP,,ND (^ <4%)
same,AX,,ND (^ <4%)
same,CE,,ND (^ <4%)
same,HL,,ND (^ <4%)
same,MS,,ND (^ <4%)
same,PS,,ND (^ <4%)
same,SH,,ND (^ <4%)
same,AD,"hydrochloride, 3 mg/kg",ND (^ <4%)
same,UK,"hydrochloride, 3 mg/kg",++ (≥24%)
same,MED,,3 mpk
"NC1COc2c(C3CC3)csc2C1 (single isomer, unassigned) [Compound 329, 3-cyclopropyl-6,7-dihydro-5H-thieno[3,2-b]pyran-6-amine hydrochloride]",minimal effective dose,,< 3 mg/kg
same,AG,,ND (^ <4%)
same,AN,,ND (^ <4%)
same,AP,,ND (^ <4%)
same,AX,,ND (^ <4%)
same,CE,,ND (^ <4%)
same,HL,,ND (^ <4%)
same,MS,,ND (^ <4%)
same,PS,,ND (^ <4%)
same,SH,,ND (^ <4%)
same,AD,"hydrochloride, 3 mg/kg",++++ (≥74%)
same,UK,"hydrochloride, 3 mg/kg",ND (^ <4%)
"NC1COc2c(C3CC3)csc2C1 (single isomer, unassigned) [Compound 330, 3-cyclopropyl-6,7-dihydro-5H-thieno[3,2-b]pyran-6-amine hydrochloride]",AG,,ND (^ <4%)
same,AN,,ND (^ <4%)
same,AP,,ND (^ <4%)
same,AX,,ND (^ <4%)
same,CE,,ND (^ <4%)
same,HL,,ND (^ <4%)
same,MS,,ND (^ <4%)
same,PS,,ND (^ <4%)
same,SH,,ND (^ <4%)
same,AD,"hydrochloride, 3 mg/kg",ND (^ <4%)
same,UK,"hydrochloride, 3 mg/kg",+ (≥4%)
same,MED,hydrochloride,>3 mpk
